Here are results for nine compounds from patent EP0976707A1, “CYCLOALKYL BENZYL ETHER COMPOUNDS” (Nissan Chemical Industries, Ltd., priority 1997, dated 1998).

Common to all, as to format: in vivo
For data set [1], the system named is Monochoria vaginalis. The data set is described as follows: Herbicidal effect test under submerged conditions (Test Example 5). Set-up: key: 0 indicating no influence; 5 indicating complete withering. To be noted: dosage 500 g/ha; three weeks after the treatment; rating 0-5. The text has this:
(§1) [Test Example 5] Herbicidal effect test under submerged conditions
(§2) In a 1/10,000-are Wagner pot was filled alluvial soil, which was mixed with water introduced therein to establish submerged conditions at a water depth of 4 cm. Respective seeds of Monochoria vaginalis, Rotala indica and Scirpus juncoides were sowed mixedly in the pot and then treated with the compound of the present invention prepared according to one of Composition Examples. Three weeks after the treatment, the herbicidal effect on the various weeds was examined.

The next data set has as its system Rotala indica. Described as above. Set-up: key: 0 indicating no influence; 5 indicating complete withering. To be noted: dosage 500 g/ha; three weeks after the treatment; rating 0-5.
Excerpt: as §1, §2

Data set [2] deals with Scirpus juncoides. Described as above. Set-up: key: 0 indicating no influence; 5 indicating complete withering. Particulars: dosage 500 g/ha; three weeks after the treatment; rating 0-5.
Excerpt: as §1, §2

The test system of data set [3] is Monochoria vaginalis. In words: Herbicidal effect test under submerged conditions, inhibition ratio (Test Example 6). Particulars: Pontederia vaginalis, 504 h, read-out: inhibition ratio (%), C (Monochoria vaginalis); for pest or weed control at 2 g/ha: dosage 2 g/ha. The text has this: (§3) [Test Example 6] Herbicidal effect test under submerged conditions
(§4) In a 1/5,000-are Wagner pot was filled alluvial soil, which was mixed with water introduced therein to establish submerged conditions at a water depth of 4 cm. After seeds of Monochoria vaginalis and Scirpus juncoides were sowed mixedly in the pot, 2.5 leaf stage rice seedlings were transplanted at a depth of 2 cm. On the next day of transplantation of the rice, the compound of the present invention prepared according to one of Composition Examples was applied. Three weeks after the treatment, the live weights of aerial parts of each kind of the weeds and rice were measured and inhibition ratios (%) were obtained according to Test Example 4. In the tables, (E) indicates expected values obtained by the equation of Colby and (F) indicates found values. Left side values and right side values in the column of application rate for each active ingredient indicate corresponding dosages of compounds in the column of compound name.
(§5) Synergistic herbicidal effect of herbicide mixtures will be explained as follows. That is, individual active compounds in many cases may be deficient in their herbicidal activity. In such a case, if the herbicidal activity of two active compounds in combination is higher than the simple sum of the activities of the compounds (expected activity), then this is called synergistic action. The expected activity from the stable combination of two herbicides, can be calculated as follows. (cf. Colby, S. R., Calculation of Synergistic and Antagonistic Reactions of Combination of Herbicides, Weed, vol. 15, pages 20-22 (1967)) E = α + β - ( α · β / 100) [formula] α : Inhibition ratio when herbicide A is applied in a rate of a kg/ha β : Inhibition ratio when herbicide B is applied in a rate of b kg/ha E : Inhibition ratio expected when herbicide A is applied in a rate of a kg/ha and herbicide B is applied in a rate of b kg/ha.

The subject of data set [4] is Scirpus juncoides. The description is as above. Particulars: Schoenoplectiella juncoides, 504 h, read-out: inhibition ratio (%), B (Scirpus juncoides); for pest or weed control at 2 g/ha: dosage 2 g/ha.
Excerpt: as §3, §4, §5

Another data set deals with transplanted rice. Described as above. Particulars: live weight of aerial part, three weeks after the treatment. From the text:
Herbicidal effect test under submerged conditions
In a 1/5,000-are Wagner pot was filled alluvial soil, which was mixed with water introduced therein to establish submerged conditions at a water depth of 4 cm. After seeds of Monochoria vaginalis and Scirpus juncoides were sowed mixedly in the pot, 2.5 leaf stage rice seedlings were transplanted at a depth of 2 cm. On the next day of transplantation of the rice, the compound of the present invention prepared according to one of Composition Examples was applied. […] In the tables, (E) indicates expected values obtained by the equation of Colby and (F) indicates found values.
The expected activity from the stable combination of two herbicides, can be calculated as follows.

Where [5] appears, read: live weight of aerial part, three weeks after the treatment.
Setting [6] is: dosage 4 g/ha, live weight of aerial part, three weeks after the treatment.

Where two headings read alike, the source gives them in different places.

As to `Cc1ccc(NC(=O)NC(C)(C)c2ccccc2)cc1` [R-1, daimuron, reference compound], in the data set with Monochoria vaginalis [1], the “herbicidal effect, C (Monochoria vaginalis)” value worked out at 0. In addition, the “herbicidal effect, D (Rotala indica)” value with Rotala indica was 1. In addition, the “herbicidal effect, B (Scirpus juncoides)” value in the data set on Scirpus juncoides [2] is on record as 5.

As for `CCOC(=O)c1cnn(C)c1S(=O)(=O)NC(=O)Nc1nc(OC)cc(OC)n1` [R-2, pyrazosulfuron ethyl], the pest or weed control at 2 g/ha worked out at 80% in the data set with Monochoria vaginalis [3] (setting [5]) and 71% in the data set on Scirpus juncoides [4] (setting [5]). Moreover, the “inhibition ratio (%), a (transplanted rice)” value (“inhibition ratio (%)” for short) in the data set on transplanted rice (dosage 2 g/ha) amounted to 0%.

As for `COC(=O)c1c(Cl)nn(C)c1S(=O)(=O)NC(=O)Nc1nc(OC)cc(OC)n1` [R-3, halosulfuron methyl], the pest or weed control at 4 g/ha in the data set on Monochoria vaginalis [3] came out at 71%; in the data set on Scirpus juncoides [4] it was 66%. For the same compound, the “inhibition ratio (%)” value in the data set on transplanted rice (dosage 4 g/ha) came out at 0%.

For `COc1cc(OC)nc(NC(=O)NS(=O)(=O)c2c(Cl)nc3ccccn23)n1` [R-4, imazosulfuron], the pest or weed control at 4 g/ha came to 65% in the data set with Monochoria vaginalis [3] (setting [6]) and 60% in the data set with Scirpus juncoides [4] (setting [6]).

For `COc1cc(OC)nc(NC(=O)NS(=O)(=O)c2c(-c3nnn(C)n3)cnn2C)n1` [R-5, azimsulfuron], the pest or weed control at 2 g/ha in the data set on Monochoria vaginalis [3] (setting [5]) was found to be 75%; with Scirpus juncoides [4] (setting [5]), 61%.

As to `COc1cc(OC)nc(NC(=O)NS(=O)(=O)Nc2ccccc2C(=O)C2CC2)n1` [R-6, cyclosulfamuron], the pest or weed control at 4 g/ha with Monochoria vaginalis [3] (setting [6]) turned out to be 77%; in the data set on Scirpus juncoides [4] (setting [6]), 78%. Moreover, the “inhibition ratio (%)” value in the data set on transplanted rice (dosage 4 g/ha) is 0%.

As to `CCOc1ccccc1OS(=O)(=O)NC(=O)Nc1nc(OC)cc(OC)n1` [R-7, ethoxysulfuron], the pest or weed control at 2 g/ha in the data set on Monochoria vaginalis [3] (setting [5]) amounted to 63%; in the data set on Scirpus juncoides [4] (setting [5]), 72%.

For the compound `COCCOc1ccccc1S(=O)(=O)NC(=O)N=c1nc(OC)[nH]c(OC)n1` [R-8, cinosulfuron], the pest or weed control at 4 g/ha with Monochoria vaginalis [3] stood at 69%; in the data set with Scirpus juncoides [4], 70%. The “inhibition ratio (%)” value with transplanted rice (dosage 4 g/ha) stood at 0%.

`COC(=O)c1ccccc1CS(=O)(=O)NC(=O)Nc1nc(OC)cc(OC)n1` [R-9, bensulfuron methyl]: the pest or weed control at 4 g/ha in the data set on Monochoria vaginalis [3] (setting [6]) was 69%; in the data set on Scirpus juncoides [4] (setting [6]) it was 68%.
